This is an account of results in patent US8299126B2, “Treatment of canine hemangiosarcoma with a histone deacetylase inhibitor” (priority 2003, dated 2012).

“And” between values parts separate entries of the source, which are not always exact repeats. Equal entries are not always repeated. Where two headings read alike, the source gives them in different places.

For one data set, the system named is canine hemangiosarcoma. Format: in vivo. As for the experimental part:
The present invention is based in part on a case study of a dog having hemangiosarcoma. In the case study, SAHA was administered to the dog at a dose of 100 mg per day (about 3.3 mg/kg/day) post-splenectomy, mixed as a dry powder in dog food. The dog remains in good health more than 400 days post-splenectomy.
A 75 pound (33.75 kg), 12 year old female Rhodesian Ridgeback-Pit Bull mix was diagnosed with hemangiosarcoma. Symptoms included unexplained weakness, pale color to the mucous membranes of the mouth, lack of appetite and excessive consumption of water. The dog was brought to an emergency veterinary center, where X-ray and sonogram examination indicated a multi-lobulated mass on the spleen. An emergency splenectomy was performed, during which approximately 1 liter of blood was aspirated from the body cavity. There was no gross evidence of metastases in the liver or heart and a liver biopsy was taken. […] Nuclei were mildly pleomorphic, oval and had prominent nucleoli. Mitoses were occasionally present. Extramedullary hematopoiesis was present throughout and large areas of hemorrhage and necrosis was typical. The tumor was multifocal throughout the spleen. Pathology results were reported as hemangiosarcoma, grade 1, spleen, with a normal liver.
Starting approximately 2 weeks after splenectomy, when signs of weakness had re-appeared, SAHA was administered in the diet at 100 mg/day, 7 days/week. The dose was based on a rough extrapolation from rat studies. The diet consisted of a cup of standard pelleted dog food (Solid Gold, Hund-n-Flocken), a teaspoonful of brewers yeast (Foster and Smith, Rhinelander, Wis.), 1-2 ml of an essential fatty acid mixture containing n-6 and n-3 PUFA (Foster and Smith), and 2 tablespoonfuls of wet dog food (Pedigree®, Kal Kan Foods, Inc., CA), in which the SAHA was administered.
Within 24 hrs, there was an immediate, observable decrease in weakness and lethargy. […] For three months from diagnosis, the dog went through periods of high alertness and activity punctuated by brief periods of mild lethargy.
(§1) A little over 7 months post-splenectomy, the dog was examined for possible signs of metastasis by chest X-Ray, abdominal ultrasound, echogram, urinalysis and CBC.

The subject of data set [1] is NMU-induced rat mammary tumors. To be noted: cited from earlier work.
A short description of another data set: General toxicity of SAHA. An excerpt:
The daily dosage of the compound of the present invention may vary according to a variety of factors such as underlying disease states, the individual's type, species, and medical condition, weight, sex, age, the severity of the condition to be treated; the route of administration; and the particular compound thereof employed. […] A physician or veterinarian of ordinary skill can readily determine and prescribe the effective amount of the drug required to prevent, counter or arrest the progress of the condition. Optimal precision in achieving concentrations of drug within the range that yields efficacy without toxicity requires a regimen based on the kinetics of the drug's availability to target sites. This involves consideration of the absorption, distribution, metabolism, and excretion of a drug, which are readily quantified.

The nature of data set [2]: Analyzed urine output: removal, half-life and metabolism of SAHA. Format: in vivo. From the text: (§2) Therefore, it may be possible with further studies to better understand the effect of SAHA on the vascularization of tumors, not only in canines, but perhaps in humans as well.
In data set [3] the test system is human prostate cancer cells. To be noted: mouse xenograft model (Butler et al. 2000); cited from earlier work.
The nature of data set [4]: Follow-up blood chemistry and hematology of the SAHA-treated dog. Format: in vivo, canine.
Source text: Approximately one month post-splenectomy, the dog was examined and found to be in good condition. […] The platelet count was above the normal range 550, (reference range, 100-450).
as §1

Data set [5] can be described thus: Stability at room temperature and solubility of the active compound. It counts as physicochemical.
Source text: Suitable preparations of such compositions include emulsions or solid forms suitable for emulsion. As used herein “solid forms” include powders and finely divided particles. Due to the insoluble nature of the active compound, e.g., SAHA, the preferred preparation is in the form of a powder.
as §2

The test system of another data set is hemangiosarcoma. The note with it: canines, surgery and chemotherapy with doxorubicin; cited from earlier work.
Where [6] appears, read: added to the diet, chemopreventive (Cohen et al., 1999).

Consider `O=C(CCCCCCC(=O)Nc1ccccc1)NO` [SAHA, suberoylanilide hydroxamic acid], for which the “signs of decreased energy after dose increase” value in the data set on canine hemangiosarcoma (SAHA increased to 110 mg/day) is listed as “no signs of decreased energy”. In the data set with canine hemangiosarcoma (a little over 7 months post-splenectomy), the “signs of metastasis by chest X-Ray, abdominal ultrasound, echogram, urinalysis and CBC” value was “no evidence of dissemination”. In addition, the “time to observable decrease in weakness and lethargy” value in the data set with canine hemangiosarcoma (after start of SAHA 100 mg/day in the diet, about 2 weeks after splenectomy) was at most 24 h. For the same compound, in the data set on canine hemangiosarcoma (one dog with hemangiosarcoma, SAHA 100 mg per day (about 3.3 mg/kg/day), later 110 mg/day, in dog food), the “time the dog remains in good health post-splenectomy” value is “more than 400 days and 400 days”. The “duration of suppression of metastatic dissemination of neoplastic endothelial cells post-splenectomy” value in the data set with canine hemangiosarcoma (one dog, SAHA daily in diet) is reported as 210 days. Besides, in data set [1] (setting [6]), the “effect on time of appearance, incidence, multiplicity and total number of NMU-induced rat mammary tumors” value is given as “significantly inhibit”; the side effects result was “no deleterious side effects”. Also, the “effect on established rat mammary tumors” value in data set [1] (administered in the diet, chemotherapeutic (Cohen et al., 2002)) is recorded as “decrease the size, slow the growth rate and, in some cases, induce the complete regression”. Moreover, in data set [1] (administered in the diet, established tumors (Cohen et al., 2002)), the side effects result is “no toxic side effects”. Also, the toxicity entry in the data set “General toxicity of SAHA” is given as “almost no measurable toxicity other than possible fatigue at high doses”. For the same compound, in data set [2] (from analyzed urine output), the half-life result is “approximately three to four” and the “removal from the body” value is listed as “rapidly removed from the body”. For the same compound, the “metabolism by the animal” value in data set [2] (in vivo) was “not readily metabolized”. The tumor growth entry in data set [3] is given as “inhibited tumor growth”. In addition, the bands neutrophils in data set [4] (a little over 7 months post-splenectomy, range 0-3) was determined as 6. Moreover, in data set [4] (a little over 7 months post-splenectomy, range 5.5-8.5), the RBC is 4.98 10^6/µL. This compound gave a segmented neutrophil in data set [4] (a little over 7 months post-splenectomy, range 32-36) of 36.5. Moreover, the Hematocrit in data set [4] (a little over 7 months post-splenectomy, range 37-55) is 35.3%. Further, the alkaline phosphatase in data set [4] (a little over 7 months post-splenectomy, reference range 10-150) is 3 U/L. Also, in data set [4] (approximately one month post-splenectomy, range 5-8), the RBC was 4.96 10^6/µL. For the same compound, in data set [4] (approximately one month post-splenectomy, range 14-21), the hemoglobin was determined as 13.2 g/dL. Further, in data set [4] (approximately one month post-splenectomy, reference range 50-550), the LDH was 49 U/L. Moreover, in data set [4] (approximately one month post-splenectomy, reference range 100-450), the platelet count is 550 10^3/µL. For the same compound, the solubility result in data set [5] is reported as “insoluble”. Also, the “stability at room temperature” value in data set [5] (room temperature) is on record as “stable at room temperature”.
As for `COc1cccc2c1C(=O)c1c(O)c3c(c(O)c1C2=O)C[C@@](O)(C(=O)CO)C[C@@H]3O[C@H]1C[C@H](N)[C@H](O)[C@H](C)O1` [doxorubicin], the prognosis once diagnosed entry in the data set on hemangiosarcoma is “less than six”.
